Values of other authors as cited in US10059696B2, “Process for preparing 1,3-dihydroimidazole-2-thione derivatives” (BIAL-PORTELA & CA, S.A., priority 2011, dated 2018).

Conditions: able to cause central as well as peripheral effects

- blood brain barrier (BBB) crossing: found to cross the blood brain barrier
Compound: NCc1c[nH]c(=S)n1[C@H]1CCc2c(F)cc(F)cc2C1 [nepicastat]
